Experimental data as given in the supplement of paper PMC10307832.

Columns and labels:
Experiment in all cases: relative viability (nuclei count vs DMSO), 5 days (fraction); higher = more cells survive
[1] = compound: C1CNCCC1C2=CC(=NN2)C3=CC=NC=C3 + COc1cccc2cc(-c3nc([C@H]4CC[C@H](C(=O)O)CC4)n4ncnc(N)c34)[nH]c12 [OSI-027] (partner 0.5 µM)
Method in brief: (§1)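 Lung cancer cell lines, seeded in 1536-well plates, were treated the following day by pin tool with a single drug or with five library-drug doses (not always all listed) in √10 steps on top of a fixed anchor-drug dose. Cells were fixed and nuclei stained in one step after 5 days, and nuclei were counted. Relative viability is the nuclei count for treated wells divided by that for vehicle wells, reported as medians of duplicate plates.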

[2] = compound: O[C@H]1CC[C@H](Nc2ncc3nc(Nc4c(F)cc(F)cc4F)n([C@H]4CCOC4)c3n2)CC1 [Tanzisertib] + O=C(CCCCCCC(=O)Nc1ccccc1)NO [Vorinostat] (partner 1 µM)
Method in brief: as §1

[3] = compound: C[C@@H](N)c1ccc(C(=O)Nc2ccnc3[nH]ccc23)cc1 + Cc1cc(Nc2cc(N3CCN(C)CC3)nc(Sc3ccc(NC(=O)C4CC4)cc3)n2)n[nH]1 [Tozasertib] (partner 0.1 µM)
Method in brief: as §1

[4] = compound: O[C@H]1CC[C@H](Nc2ncc3nc(Nc4c(F)cc(F)cc4F)n([C@H]4CCOC4)c3n2)CC1 [Tanzisertib] + C[C@@H](Oc1cc(-c2cnn(C3CCNCC3)c2)cnc1N)c1c(Cl)ccc(F)c1Cl [Crizotinib] (partner 1 µM)
Method in brief: as §1

Cell Line	relative viability ([1]; first compound 0.08 µM)	relative viability ([1]; first compound 0.8 µM)	relative viability ([1]; first compound 2.53 µM)	relative viability ([1]; first compound 8 µM)	relative viability ([2]; first compound 0.08 µM)	relative viability ([2]; first compound 0.253 µM)	relative viability ([2]; first compound 0.8 µM)	relative viability ([2]; first compound 2.53 µM)	relative viability ([2]; first compound 8 µM)	relative viability ([3]; first compound 0.04 µM)	relative viability ([3]; first compound 0.1265 µM)	relative viability ([3]; first compound 0.4 µM)	relative viability ([3]; first compound 4 µM)	relative viability ([4]; first compound 0.08 µM)	relative viability ([4]; first compound 0.253 µM)	relative viability ([4]; first compound 0.8 µM)	relative viability ([4]; first compound 2.53 µM)	relative viability ([4]; first compound 8 µM)	relative viability ([3]; first compound 1.265 µM)
NCI-H23	0.676	0.655	0.653	0.67	0.542	0.596	0.498	0.49	0.474	0.377	0.358	0.425	0.501	0.568	0.553	0.554	0.601	0.598	
NCI-H1651	0.649	0.767	0.827	0.76	0.575	0.603	0.513	0.517	0.549	0.844	0.602	0.798	0.885	0.851	0.817	0.882	0.833	0.921	0.871
NCI-H1975	0.703	0.778	0.774	0.777	0.743	0.761	0.71	0.704	0.656	0.8	0.712	0.729	0.642	0.892	1	0.954	0.935	0.915	0.696
COR-L23	0.691	1.01	0.761	0.73	0.438	0.504	0.479	0.494	0.537	0.232	0.188	0.204	0.144	0.861	0.669	0.638	0.701	0.709	0.202
HCC-44	0.47	0.71	0.627	0.787	1.22	1.16	1.19	1.19	1.25	0.793	0.809	1.15	0.789	0.907	0.824	0.822	0.89	0.817	1.2
LOU-NH91	0.696	0.74	0.796	0.727	0.948	0.924	1	0.974	0.418	0.556	0.609	0.607	0.417	0.716	0.734	0.723	0.464	0.593	0.504
NCI-H441	0.536	0.769	0.736	0.867	0.895	0.854	0.731	0.72	0.804	0.742	0.716	0.65	0.627	0.94	0.811	0.505	0.647	0.78	
NCI-H647	0.631	0.68	0.66	0.589	0.486	0.569	0.549	0.661	1.1	0.322	0.227	0.426	0.303	1.12	0.975	1.09	1.14	1.01	0.324
NCI-H1915	0.643	0.641	0.623	0.646	0.569	0.535	0.46	0.503	0.487	0.455	0.472	0.45	0.331	0.929	0.91	0.862	0.904	0.856	
NCI-H1734	0.543	0.616	0.674	0.653	0.966	0.781	0.756	0.906	0.81	0.263	0.247	0.259	0.202	0.743	0.658	0.72	0.738	0.599	0.213
NCI-H1993	0.581	0.533	0.529	0.578	0.901	0.928	1.1	0.769	0.77	0.579	0.591	0.56	0.6	0.855	0.886	0.891	0.789	0.789	0.639
LK-2	0.264	0.284	0.223	0.209	0.365	0.356	0.282	0.25	0.278	0.165		0.17	0.171	0.233	0.271	0.232	0.244	0.235	
HCC-78	0.344	0.359	0.354	0.383	0.505	0.455	0.461	0.403	0.447	0.51	0.405	0.733	0.633	0.287	0.331	0.313	0.332	0.286	0.415
NCI-H2405	0.72	0.627	0.731	0.674	1.04	1.19	1.14	1.17	0.404	0.858	0.832	0.759	0.35	0.935	0.825	0.828	0.916	0.789	0.507
HOP-62	0.816	0.912	0.831	0.773	0.632	0.599	0.679	0.768	0.605	0.328	0.351	0.369	0.297	0.945	0.964	1	1.05	0.824	0.398
NCI-H650	0.513	0.58	0.505	0.543	0.404	0.421	0.432	0.45	0.282		0.665	0.775	0.588	0.725	0.686	0.712	0.881	0.636	0.644
NCI-H358	0.593	0.713	0.834	0.698	0.764	0.791	0.75	0.65	0.56	0.111	0.109	0.0968	0.0998	0.748	0.716	0.511	0.506	0.485	0.105
